{"source": "patent US20130065227A1", "about": "“METHODS OF INCREASING MACROPINOCYTOSIS IN CANCER CELLS” (priority 2010, published 2013)", "key": {"[1]": {"system": "DU145 cells", "assay": "Uptake of fluorescently labeled duplex siRNA after AS1411 pre-treatment", "assay_type": "cell-based", "conditions": "10 μM, 48 h", "from_the_text": "FIG. 18 is a graph showing the uptake of siRNA in the presence of AS1411.\nFurthermore, due to the unique properties of MPsomes, delivery by MP leads to increased functional activity. Thus, treatment with AS1411, followed by administration of an anticancer siRNA, for example, leads to a synergistic increase in anticancer effects without harming normal cells. Another strategy to potentiate the effects of AS1411 is to combine it with agents that promote MP and activation of Rac. This leads to increased macropinocytic uptake of AS1411 and/or enhanced methuosis."}, "[2]": {"system": "CHO", "assay": "Stimulation of macropinocytosis (dextran uptake)", "assay_type": "cell-based", "conditions": "Non-cancer, hamster ovary", "from_the_text": "(§1) It has recently been discovered that AS1411 can stimulate macropinocytosis (MP) in cancer cells and this finding was verified by several different methods and in multiple cancer cell lines (Table 1)."}, "[3]": {"system": "RCC4", "assay": "Stimulation of macropinocytosis (dextran uptake)", "assay_type": "cell-based", "conditions": "Cancer, renal cell", "from_the_text": "as §1"}, "[4]": {"system": "MCF10A", "assay": "Stimulation of macropinocytosis (dextran uptake)", "assay_type": "cell-based, human", "conditions": "MCF10A; Non-cancer, breast epithelial", "procedure": "FIG. 10 are graphs showing the stimulation of macropinocytosis by GROs. Breast carcinoma cells (MDA-MB-231, MCF-7) or non-malignant breast epithelial cells (MCF10A) cells were plated 18 hr before treatment with 10 μM tAS1411 or 10 μM tCRO or water in complete DMEM medium at 37° C. for 48 hr or 72 hr. After treatment, cell medium was changed for fresh complete medium containing 0.2 mg/ml dextran-10K labeled with Alexa Fluor 488 and cells were incubated for 30 min at 37° C. Cells were then incubated on ice with 1 mg/ml PI in PBS, harvested, and analyzed by flow cytometry. Uptake was normalized to no pre-treatment controls and bars show the mean and SE of three independent experiments. […]\nAS1411 causes a change in cancer cell morphology that is characterized by vacuolization, irregular nuclei, and swollen cells (Xu et al., 2001, J. Biol. Chem., 276:43221-30). […] To test this idea, DU145 cells were pre-treated for 24 h with tAS1411, then added FL-AS1411 and evaluated uptake after an additional 2 h using flow cytometry. […] This idea is not necessarily inconsistent with the time course data shown in FIG. 1A because the fluorescence signal may decrease over time for a number of reasons, including exocytosis of the ligand and fluorescence quenching due to protein binding or environmental factors (the fluorophore used for flow cytometry is particularly sensitive to acidic environments). […]"}, "[5]": {"system": "DU145", "assay": "Stimulation of macropinocytosis (dextran uptake)", "assay_type": "cell-based", "procedure": "(Panel A) DU145 cells were treated with 10 μM tAS1411 or 10 μM tCRO or no oligonucleotide in complete DMEM medium at 37° C. for the time indicated. After treatment, cell medium was changed for fresh complete medium containing 0.2 mg/ml dextran-10K labeled with Alexa Fluor 488, and cells were incubated for 30 min at 37° C. After incubation, cells were harvested and analyzed by flow cytometry to determine dextran uptake. (Panel B) The same experiment was performed using Hs27 cells. (Panel C) DU145 cells were treated with 10 μM tAS1411 or 10 μM tCRO or no oligonucleotide in complete DMEM medium at 37° C. for 48 h. After treatment, cell medium was changed for fresh complete medium containing 0.2 mg/ml dextran-10K tagged with Alexa Fluor 488, and cells were incubated for 30 min at 37° C. Then, cells were washed with cold PBS, added PBS containing 5 μg/ml PI and incubated on ice for 5 min. After washing with cold PBS, cells were fixed and the distribution of macropinocytic marker was visualized by confocal microscopy. The nucleus was stained with DAPI (blue). Scale bars, 10 μm. All experiments have been repeated at least three times. Data are mean of three independent samples; bars, SE; *(p<0.05).\nFIG. 6 are graphs showing that nucleolin regulates AS1411-induced stimulation of macropinocytosis. DU145 cells were untreated (no transfection) or transfected, without siRNA (mock), or with 30 nM of one of three different nucleolin siRNAs (NCL1, NCL2, NCL3) or a control siRNA (scramble). 48 h after transfection, cells were incubated with 10 μM tAS1411, 10 μM tCRO, or no oligonucleotide in complete DMEM medium at 37° C. for 24 h. (Panel A) After treatment, cell medium was changed for fresh complete medium containing 0.2 mg/ml dextran-10K labeled with Alexa Fluor 488 (green) and incubated for 30 min at 37° C. (Panel B) After treatment, some cells were washed, fresh complete medium containing 10 μM FL-AS1411 added and incubated for 2 h at 37° C. After incubation, cells were harvested and analyzed by flow cytometry. Mean fluorescence was normalized to “not transfected” control (Panel A) or to no pre-treatment control (Panel B). All experiments have been repeated at least three times. Data are the mean of three independent samples; bars, SE; *(p<0.05).\nFIG. 11 is a graph showing a comparison between AS1411 and tAS1411 in the ability to stimulate macropinocytosis. DU145 cells were plated 18 hr before treatment with different concentrations (0, 5, 10, or 15 μM) of AS1411, tAS1411 or tCRO in complete DMEM medium at 37° C. for 48 h. After treatment, cell medium was changed for fresh complete medium containing 0.2 mg/ml dextran-10K labeled with Alexa Fluor 488, and cells were incubated for 30 min at 37° C. After incubation, cells were incubated on ice with […] PI in PBS, harvested, fixed and immediately analyzed by flow cytometry.\nTo analyze uptake of the oligodeoxynucleotides or dextran-10K (macropinocytic marker) by flow cytometry, 2×10^5 cells in fresh supplemented culture medium (2.5 ml) were plated into 6-well plates for 18 h. After complete adhesion, the cells were incubated with 5′-FAM tagged oligodeoxynucleotides or Alexa Fluor 488 tagged dextran-10K and incubated as indicated in the Description of the Drawings. Cells were washed once with ice-cold PBS, incubated with 1 μg/ml 7-amino-actinomycin D (7-AAD) for 5 min on ice or 1 μg/ml propidium iodide (PI), and washed twice with ice-cold PBS. Cells were then treated with 0.01% trypsin/0.5 mM EDTA (300 μl) for 3 min prior addition 3 ml supplemented culture medium. The cells were then centrifuged and resuspended in 0.5 ml of 1% paraformaldehyde for analysis by flow cytometry using a FACScalibur cytometer (BD Biosciences, Mountain View, Calif.).\nAS1411 causes a change in cancer cell morphology that is characterized by vacuolization, irregular nuclei, and swollen cells (Xu et al., 2001, J. Biol. Chem., 276:43221-30). […]"}}, "data": [{"substance": "5′-d(GGTGGTGGTGGTTGTGGTGGTGGTGG) [AS1411]", "values": [{"measurement": "siRNA delivery after pre-treatment", "setting": "[1]", "result": "substantial increase in siRNA delivery"}, {"measurement": "Stimulate MP?", "setting": "[2]", "result": "No"}, {"measurement": "Stimulate MP?", "setting": "[3]", "result": "Yes"}, {"measurement": "Stimulate MP?", "setting": "[4]", "result": "No"}, {"measurement": "stimulation of macropinocytosis compared with tAS1411", "setting": "[5]; 0, 5, 10, or 15 μM for 48 h", "result": "same response as tAS1411"}, {"measurement": "dextran uptake after treatment for shorter times", "setting": "[5]; 1 h, 2 h, and 4 h", "result": "No changes in dextran uptake"}, {"measurement": "Stimulate MP?", "setting": "[5]; DU145, Cancer, prostate", "result": "Yes"}]}]}
